Source: ChEMBL document CHEMBL1134861, “Improving metabolic stability of phosphodiesterase-4 inhibitors containing a substituted catechol: prevention of reactive intermediate formation and covalent binding” (Bioorg Med Chem Lett, 2002)

Species on record: Rattus norvegicus
Test: In vitro metabolism of radiolabeled compound at 10 uM was performed in rat microsomal protein containing a NADPH-regenerating system for 1 hr at 37 degree C
Format: functional

| SMILES | Covalent binding | Covalent binding (tested as the 3H-labelled form) |
| --- | --- | --- |
| Cc1cncc(C)c1CC(c1ccc(C(O)(C(F)(F)F)C(F)(F)F)cc1)c1ccc(OCF)c(OC2CCC2)c1 (stereo not given) | 0.45% |  |
| COc1ccc(C(Cc2c(C)cncc2C)c2ccc(C(O)(C(F)(F)F)C(F)(F)F)cc2)cc1OC1CCCC1 (stereo not given) | 2.9% |  |
| COc1ccc([C@H](Cc2ccncc2)c2ccc(C(O)(C(F)(F)F)C(F)(F)F)cc2)cc1OC1CCCC1 |  | 3.1% |
| Cc1cncc(C)c1CC(c1ccc(C(O)(C(F)(F)F)C(F)(F)F)cc1)c1ccc(OCF)c(OC(F)F)c1 (stereo not given) | < 0.05% |  |
| [O-][n+]1ccc(CC(c2ccc(C(O)(C(F)(F)F)C(F)(F)F)cc2)c2ccc(OC(F)F)c(OC(F)F)c2)cc1 (stereo not given) | < 0.05% |  |
